Reference: ChEMBL document CHEMBL4680105, “Discovery of Benzenesulfonamide Derivatives as Carbonic Anhydrase Inhibitors with Effective Anticonvulsant Action: Design, Synthesis, and Pharmacological Evaluation” (J Med Chem, 2018)

What was measured:
Carbonic anhydrase 9 = Carbonic anhydrase 9 (Homo sapiens, UniProt Q16790); experiment: Inhibition of recombinant human carbonic anhydrase 9 by stopped-flow CO2 hydration assay
Mus musculus [1] = experiment: (§1) Anticonvulsant activity in Swiss Albino mouse model of maximal electroshock-induced seizure assessed as protection against seizure by measuring suppression of hind limb extension at 30 mg/kg, ip pretreated for 30 mins before seizure stimulation and measured after 0.5 hrs by MES test relative to control; format: functional; conditions: time 60 min, 1 h
Mus musculus [2] = experiment: Anticonvulsant activity in Swiss Albino mouse assessed as protection against seizure at 100 mg/kg, ip measured after 0.5 hrs by sc-PTZ seizure test relative to control; format: functional
Mus musculus [3] = experiment: as §1, with “at 100” for “at 30”, “after 3” for “after 0.5”; format: functional; conditions: 0.5 h
Mus musculus [4] = experiment: Anticonvulsant activity in Swiss Albino mouse assessed as protection against seizure at 100 mg/kg, ip measured after 3 hrs by sc-PTZ seizure test relative to control; format: functional
Mus musculus [5] = experiment: Anticonvulsant activity in Swiss Albino mouse assessed as protection against seizure at 30 mg/kg, ip measured after 0.5 hrs by sc-PTZ seizure test relative to control; format: functional
Mus musculus [6] = experiment: as §1, with “3” for “0.5”; format: functional; conditions: time 3.5 hrs
Mus musculus [7] = experiment: Anticonvulsant activity in Swiss Albino mouse assessed as protection against seizure at 30 mg/kg, ip measured after 3 hrs by sc-PTZ seizure test relative to control; format: functional
Mus musculus [8] = experiment: as §1, with “at 100” for “at 30”; format: functional; conditions: time 60 min, 1 h
[9] = Renal toxicity in Wistar rat assessed as calcium level at 100 mg/kg, po for 14 days (reference value: 10.3 +/- 1.8 mg/dL) by kidney function test; format: organism-based; conditions: in vivo, 336 h, time 14 day
Mus musculus [10] = experiment: as §1, with “po” for “ip”, “2” for “0.5”; format: functional; conditions: time 2.5 hrs
[11] = Sub-acute toxicity in Wistar rat assessed as mortality level at 100 mg/kg, po for 14 days; format: organism-based; conditions: in vivo, 336 h, time 14 day
[12] = Hematological toxicity in Wistar rat assessed as TLC level at 100 mg/kg, po for 14 days (reference value: 6.3 +/- 1.4 10^3/ml); format: organism-based; conditions: in vivo, 336 h, time 14 day
[13] = Renal toxicity in Wistar rat assessed as blood urea level at 100 mg/kg, po for 14 days (Rvb =34.7 +/- 9.9 mg/dL) by kidney function test; format: organism-based; conditions: in vivo, 336 h, time 14 day
Mus musculus [14] = experiment: as §1, with “po” for “ip”; format: functional; conditions: time 60 min, 1 h
Mus musculus [15] = experiment: as §1, with “6” for “0.5”; format: functional; conditions: time 6.5 hrs
Mus musculus [16] = experiment: as §1, with “1” for “0.5”; format: functional; conditions: time 1.5 hrs
[17] = Renal toxicity in Wistar rat assessed as Cl- level at 100 mg/kg, po for 14 days (reference value: 105.5 +/- 6.5 mequiv/L) by kidney function test; format: organism-based; conditions: in vivo, 336 h, time 14 day
[18] = Hematological toxicity in Wistar rat assessed as eosinophils level at 100 mg/kg, po for 14 days (reference value: 2.3 +/- 1.2%); format: organism-based; conditions: in vivo, 336 h, time 14 day
[19] = Renal toxicity in Wistar rat assessed as Na+ level at 100 mg/kg, po for 14 days (reference value: 144 +/- 2.8 mequiv/L) by kidney function test; format: organism-based; conditions: in vivo, 336 h, time 14 day
[20] = Hepatotoxicity in Wistar rat assessed as SGOT level at 100 mg/kg, po for 14 days (reference value: 59.9 +/- 11 U/L) by liver function test; format: toxicity, organism-based; conditions: in vivo, 336 h, time 14 day
Mus musculus [21] = experiment: as §1, with “po” for “ip”, “1” for “0.5”; format: functional; conditions: time 1.5 hrs
Mus musculus [22] = experiment: as §1, with “4” for “0.5”; format: functional; conditions: time 4.5 hrs
[23] = Hematological toxicity in Wistar rat assessed as platelet count level at 100 mg/kg, po for 14 days (reference value: 698 +/- 156 10^3/mm3); format: organism-based; conditions: in vivo, 336 h, time 14 day
[24] = Hepatotoxicity in Wistar rat assessed as alkaline phosphatase level at 100 mg/kg, po for 14 days (reference value: 114.2 +/- 8.4 U/L) by liver function test; format: toxicity, organism-based; conditions: in vivo, 336 h, time 14 day
[25] = Hepatotoxicity in Wistar rat assessed as total protein level at 100 mg/kg, po for 14 days (reference value: 6.35 +/- 0.46 g/dL) by liver function test; format: toxicity, organism-based; conditions: in vivo, 336 h, time 14 day
[26] = Hematological toxicity in Wistar rat assessed as monocytes level at 100 mg/kg, po for 14 days (reference value: 2.5 +/- 1.5%); format: organism-based; conditions: in vivo, 336 h, time 14 day
[27] = Neurotoxicity in Swiss Albino mouse by rotarod test at 30 mg/kg. ip measured up to 120 mins by rotarod test; format: toxicity, organism-based; conditions: in vivo, 2 h
[28] = Hematological toxicity in Wistar rat assessed as Hb level at 100 mg/kg, po for 14 days (reference value: 12.7 +/- 1.5 g/dL); format: organism-based; conditions: in vivo, 336 h, time 14 day
[29] = Hepatotoxicity in Wistar rat assessed as SGPT level at 100 mg/kg, po for 14 days (reference value: 59.2 +/- 12.5 U/L) by liver function test; format: toxicity, organism-based; conditions: in vivo, 336 h, time 14 day
[30] = Renal toxicity in Wistar rat assessed as uric acid level at 100 mg/kg, po for 14 days (reference value: 4.33 +/- 2.5 mg/dL) by kidney function test; format: organism-based; conditions: in vivo, 336 h, time 14 day
[31] = Hematological toxicity in Wistar rat assessed as lymphocytes level at 100 mg/kg, po for 14 days (reference value: 74.6 +/- 4.3%); format: organism-based; conditions: in vivo, 336 h, time 14 day
[32] = Renal toxicity in Wistar rat assessed as phosphorus level at 100 mg/kg, po for 14 days (reference value: 9.4 +/- 2.0 mg/dL) by kidney function test; format: organism-based; conditions: in vivo, 336 h, time 14 day
Mus musculus [33] = experiment: as §1, with “po” for “ip”, “0.25” for “0.5”; format: functional; conditions: 0.5 h
Mus musculus [34] = experiment: as §1, with “po” for “ip”, “4” for “0.5”; format: functional; conditions: time 4.5 hrs
[35] = Renal toxicity in Wistar rat assessed as K+ level at 100 mg/kg, po for 14 days (reference value: 4.82 +/- 0.3 mequiv/L) by kidney function test; format: organism-based; conditions: in vivo, 336 h, time 14 day
[36] = Renal toxicity in Wistar rat assessed as creatinine level at 100 mg/kg, po for 14 days (reference value: 0.75 +/- 0.1 mg/dL) by kidney function test; format: organism-based; conditions: in vivo, 336 h, time 14 day
[37] = Hematological toxicity in Wistar rat assessed as neutrophils level at 100 mg/kg, po for 14 days (reference value: 20.8 +/- 5.8%); format: organism-based; conditions: in vivo, 336 h, time 14 day
[38] = Hematological toxicity in Wistar rat assessed as basophils level at 100 mg/kg, po for 14 days (reference value: 0.3 +/- 0.5%); format: organism-based; conditions: in vivo, 336 h, time 14 day
[39] = Hepatotoxicity in Wistar rat assessed as total bilirubin level at 100 mg/kg, po for 14 days (reference value: 0.32 +/- 0.09 mg/dL) by liver function test; format: toxicity, organism-based; conditions: in vivo, 336 h, time 14 day
[40] = Hematological toxicity in Wistar rat assessed as RBC level at 100 mg/kg, po for 14 days (reference value: 7.9 +/- 0.94 10^6/mm3); format: organism-based; conditions: in vivo, 336 h, time 14 day
Mus musculus [41] = experiment: as §1, with “2” for “0.5”; format: functional; conditions: time 2.5 hrs
[42] = Sub-acute toxicity in Wistar rat at 100 mg/kg, po for 14 days; format: organism-based; conditions: in vivo, 336 h, time 14 day

## NS(=O)(=O)c1ccc(CNC(=O)CCN2CCN(c3ncccn3)CC2)cc1
Carbonic anhydrase 9
  Ki: 455 nM

## NS(=O)(=O)c1ccc(CNC(=O)CN2CCN(Cc3ccccc3)CC2)cc1
Carbonic anhydrase 9
  Ki: 220 nM

## NS(=O)(=O)c1ccc(CNC(=O)CCN2CCN(C(=O)OCc3ccccc3)CC2)cc1
Carbonic anhydrase 9
  Ki: 257 nM

## COc1ccc(N2CCN(CCC(=O)NCc3ccc(S(N)(=O)=O)cc3)CC2)cc1
Carbonic anhydrase 9
  Ki: 136 nM

## NS(=O)(=O)c1ccc(CNC(=O)CN2CCN(c3ncccn3)CC2)cc1
Mus musculus [1]
  Activity: 50%
Mus musculus [2]
  Activity: 50%
Mus musculus [3]
  Activity: 83%
Mus musculus [4]
  Activity: 50%
Mus musculus [5]
  Activity: 33%
Mus musculus [6]
  Activity: 67%
Mus musculus [7]
  Activity: 50%
Mus musculus [8]
  Activity: 50%
Carbonic anhydrase 9
  Ki: 2230 nM

## NS(=O)(=O)c1ccc(CNC(=O)CN2CCN(c3ccc(Cl)cc3)CC2)cc1
Carbonic anhydrase 9
  Ki: 1200 nM

## COc1ccc(N2CCN(CC(=O)NCc3ccc(S(N)(=O)=O)cc3)CC2)cc1
Carbonic anhydrase 9
  Ki: 1100 nM

## NS(=O)(=O)c1ccc(CNC(=O)CCN2CCN(c3ccccn3)CC2)cc1
Carbonic anhydrase 9
  Ki: 162 nM

## NS(=O)(=O)c1ccc(CNC(=O)CN2CCN(Cc3ccc4c(c3)OCO4)CC2)cc1
Carbonic anhydrase 9
  Ki: 1600 nM

## NS(=O)(=O)c1ccc(CNC(=O)CN2CCN(c3ccccn3)CC2)cc1
Carbonic anhydrase 9
  Ki: 1560 nM

## NS(=O)(=O)c1ccc(CNC(=O)CCN2CCN(C(c3ccc(F)cc3)c3ccc(F)cc3)CC2)cc1
Carbonic anhydrase 9
  Ki: 98 nM

## NS(=O)(=O)c1ccc(CNC(=O)CN2CCN(c3ccc(C(F)(F)F)cc3)CC2)cc1
Carbonic anhydrase 9
  Ki: 1770 nM

## NS(=O)(=O)c1ccc(CNC(=O)CCN2CCN(C(c3ccccc3)c3ccccc3)CC2)cc1
Carbonic anhydrase 9
  Ki: 890 nM

## NS(=O)(=O)c1ccc(CNC(=O)CCN2CCN(Cc3ccccc3)CC2)cc1
Carbonic anhydrase 9
  Ki: 116 nM

## Cc1ccc(N2CCN(CCC(=O)NCc3ccc(S(N)(=O)=O)cc3)CC2)cc1
Carbonic anhydrase 9
  Ki: 78.9 nM

## NS(=O)(=O)c1ccc(CNC(=O)CCN2CCN(c3ccc(F)cc3)CC2)cc1
Carbonic anhydrase 9
  Ki: 115 nM

## NS(=O)(=O)c1ccc(CNC(=O)CN2CCN(C(=O)OCc3ccccc3)CC2)cc1
Mus musculus [1]
  Activity: 17%
Mus musculus [2]
  Activity: 50%
Mus musculus [3]
  Activity: 50%
Mus musculus [4]
  Activity: 33%
Mus musculus [5]
  Activity: 67%
Mus musculus [6]
  Activity: 67%
Mus musculus [7]
  Activity: 17%
Mus musculus [8]
  Activity: 67%
Carbonic anhydrase 9
  Ki: 1630 nM

## NS(=O)(=O)c1ccc(CNC(=O)CCN2CCN(c3ccccc3)CC2)cc1
Carbonic anhydrase 9
  Ki: 23.7 nM

## NS(=O)(=O)c1ccc(CNC(=O)CCN2CCN(c3ccc(C(F)(F)F)cc3)CC2)cc1
Carbonic anhydrase 9
  Ki: 137 nM

## NS(=O)(=O)c1ccc(CNC(=O)CN2CCN(c3ccc(F)cc3)CC2)cc1
Carbonic anhydrase 9
  Ki: 228 nM

## NS(=O)(=O)c1ccc(CNC(=O)CN2CCN(C(c3ccc(F)cc3)c3ccc(F)cc3)CC2)cc1
Carbonic anhydrase 9
  Ki: 2440 nM

## NS(=O)(=O)c1ccc(CNC(=O)CN2CCN(c3ccccc3)CC2)cc1
Carbonic anhydrase 9
  Ki: 396 nM

## Cc1ccc(N2CCN(CC(=O)NCc3ccc(S(N)(=O)=O)cc3)CC2)cc1
Carbonic anhydrase 9
  Ki: 1530 nM

## NS(=O)(=O)c1ccc(CNC(=O)CN2CCN(C(c3ccccc3)c3ccccc3)CC2)cc1
Carbonic anhydrase 9
  Ki: 1680 nM

## NS(=O)(=O)c1ccc(CNC(=O)CCN2CCN(Cc3ccc4c(c3)OCO4)CC2)cc1
[9]
  Activity: 9.9 mg/dL
Mus musculus [10]
  Activity: 67%
Mus musculus [1]
  Activity: 67%
[11]
  Activity: Non-Toxic
[12]
  Activity: 7.5 10^3/ml
Mus musculus [2]
  Activity: 50%
[13]
  Activity: 39.8 mg/dL
Mus musculus [14]
  Activity: 50%
Mus musculus [15]
  Activity: 50%
Mus musculus [16]
  Activity: 80%
[17]
  Activity: 104.3 mEq/L
Mus musculus [3]
  Activity: 67%
[18]
  Activity: 2.3%
Mus musculus [4]
  Activity: 50%
[19]
  Activity: 144 mEq/L
[20]
  Activity: 64.2 U/L
Mus musculus [21]
  Activity: 67%
Mus musculus [22]
  Activity: 70%
[23]
  Activity: 662.3 10^3/mm3
[24]
  Activity: 113.4 U/L
[25]
  Activity: 6.2 g/dL
[26]
  Activity: 2.3%
Mus musculus [5]
  Activity: 83%
[27]
  Activity: Non-Toxic
[28]
  Activity: 12.6 g/dL
[29]
  Activity: 52.9 U/L
Mus musculus [6]
  Activity: 67%
[30]
  Activity: 2.73 mg/dL
[31]
  Activity: 74%
Mus musculus [7]
  Activity: 67%
[32]
  Activity: 6.8 mg/dL
Mus musculus [8]
  Activity: 83%
Carbonic anhydrase 9
  Ki: 104 nM
Mus musculus [33]
  Activity: 17%
Mus musculus [34]
  Activity: 50%
[35]
  Activity: 4.9 mEq/L
[36]
  Activity: 0.75 mg/dL
[37]
  Activity: 22.3%
[38]
  Activity: 0.16%
[39]
  Activity: 0.38 mg/dL
[40]
  Activity: 7.7 10^6/mm3
Mus musculus [41]
  Activity: 60%
[42]
  Activity: Non-Toxic

## NS(=O)(=O)c1ccc(CNC(=O)CCN2CCN(c3ccc(Cl)cc3)CC2)cc1
Carbonic anhydrase 9
  Ki: 117 nM
